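Step 1: Grow cells in 96-well plates. Step 2: Expose to compound for 48 hours at 5 concentrations. Step 3: Interpolate endpoints linearly; if unreached, use highest concentration. Abbreviation: GI50, concentration required for 50% inhibition of growth.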 Activity calls are given as the source filed them. No stated cut-off is given here; in the data, active = GI50 up to about 1.1 µM and inactive = higher.
Experiments:
Assay in all cases: growth of human tumour cells (NCI), 48 h
OVCAR-8 = system: OVCAR-8
T47D = system: T47D
CCRF-CEM = system: CCRF-CEM
MCF7 = system: MCF7
SF-268 = system: SF-268
ACHN = system: ACHN
U-251 = system: U-251
NCI-H460 = system: NCI-H460
OVCAR-5 = system: OVCAR-5
PC-3 = system: PC-3
K562 = system: K562
MDA-MB-231 = system: MDA-MB-231
LOX IMVI = system: LOX IMVI
SF-295 = system: SF-295
SN12C = system: SN12C
HCT-15 = system: HCT-15
Hs-578T = system: Hs-578T
786-0 = system: 786-0
DU-145 = system: DU-145
KM12 = system: KM12
NCI-H23 = system: NCI-H23
TK-10 = system: TK-10
EKVX = system: EKVX
A549 = system: A549
SNB-75 = system: SNB-75
UO-31 = system: UO-31
UACC-62 = system: UACC-62
HT-29 = system: HT-29
SNB-19 = system: SNB-19
UACC-257 = system: UACC-257
MDA-MB-435 = system: MDA-MB-435
M14 = system: M14
BT-549 = system: BT-549
SK-MEL-2 = system: SK-MEL-2
HOP-92 = system: HOP-92
SK-OV-3 = system: SK-OV-3
HL-60 = system: HL-60
OVCAR-4 = system: OVCAR-4
Malme-3M = system: Malme-3M
NCI/ADR-RES = system: NCI/ADR-RES
MOLT-4 = system: MOLT-4
MDA-N = system: MDA-N
OVCAR-3 = system: OVCAR-3
SF-539 = system: SF-539
NCI-H522 = system: NCI-H522
SW-620 = system: SW-620
SR = system: SR
NCI-H226 = system: NCI-H226
HCT-116 = system: HCT-116
RPMI-8226 = system: RPMI-8226
COLO 205 = system: COLO 205
A498 = system: A498
RXF 393 = system: RXF 393
SK-MEL-5 = system: SK-MEL-5
IGROV-1 = system: IGROV-1
CAKI-1 = system: CAKI-1
SK-MEL-28 = system: SK-MEL-28
HCC 2998 = system: HCC 2998
HOP-62 = system: HOP-62

Measured: GI50

O=C1CCC2(c3ccccc3)Nc3ccncc3N12 (stereo not drawn)
inactive: OVCAR-8 > 10 µM | T47D > 10 µM | CCRF-CEM > 10 µM | MCF7 > 10 µM | SF-268 > 10 µM | ACHN > 10 µM | U-251 > 10 µM | NCI-H460 > 10 µM | OVCAR-5 > 10 µM | PC-3 > 10 µM | K562 > 10 µM | MDA-MB-231 > 10 µM | LOX IMVI > 10 µM | SF-295 > 10 µM | SN12C > 10 µM | Hs-578T > 10 µM | 786-0 > 10 µM | DU-145 > 10 µM | KM12 > 10 µM | NCI-H23 > 10 µM | TK-10 > 10 µM | EKVX > 10 µM | A549 > 10 µM | SNB-75 > 10 µM | UO-31 > 10 µM | UACC-62 > 10 µM | HT-29 > 10 µM | SNB-19 > 10 µM | UACC-257 > 10 µM | MDA-MB-435 > 10 µM | M14 > 10 µM | BT-549 > 10 µM | SK-MEL-2 > 10 µM | HOP-92 > 10 µM | SK-OV-3 3.49 µM | HL-60 > 10 µM | OVCAR-4 > 10 µM | Malme-3M > 10 µM | NCI/ADR-RES > 10 µM | MOLT-4 > 10 µM | MDA-N > 10 µM | OVCAR-3 > 10 µM | SF-539 > 10 µM | NCI-H522 > 10 µM | SW-620 > 10 µM | SR > 10 µM | NCI-H226 > 10 µM | HCT-116 > 10 µM
> 10 µM: HCT-15

CC[C@@H]1CC[C@@H]2[C@H](CC[C@]3(C)[C@@H](O)CC[C@@H]23)[C@H]1C(=O)O
> 100 µM: HCT-15
inactive: OVCAR-8 > 100 µM | T47D > 100 µM | CCRF-CEM > 100 µM | MCF7 > 100 µM | SF-268 > 100 µM | RPMI-8226 > 100 µM | ACHN > 100 µM | COLO 205 > 100 µM | U-251 > 100 µM | NCI-H460 > 100 µM | OVCAR-5 > 100 µM | PC-3 > 100 µM | K562 > 100 µM | MDA-MB-231 > 100 µM | LOX IMVI > 100 µM | SF-295 > 100 µM | SN12C > 100 µM | Hs-578T > 100 µM | 786-0 > 100 µM | DU-145 > 100 µM | A498 > 100 µM | KM12 > 100 µM | NCI-H23 > 100 µM | TK-10 > 100 µM | EKVX > 100 µM | A549 > 100 µM | RXF 393 > 100 µM | SK-MEL-5 > 100 µM | SNB-75 18.8 µM | IGROV-1 > 100 µM | CAKI-1 > 100 µM | UO-31 > 100 µM | UACC-62 > 100 µM | HT-29 > 100 µM | SNB-19 > 100 µM | UACC-257 > 100 µM | SK-MEL-28 > 100 µM | MDA-MB-435 > 100 µM | M14 > 100 µM | BT-549 > 100 µM | SK-MEL-2 > 100 µM | HOP-92 > 100 µM | SK-OV-3 > 100 µM | HL-60 > 100 µM | HCC 2998 > 100 µM | OVCAR-4 > 100 µM | Malme-3M > 100 µM | NCI/ADR-RES > 100 µM | HOP-62 > 100 µM | MOLT-4 > 100 µM | MDA-N > 100 µM | OVCAR-3 > 100 µM | SF-539 > 100 µM | NCI-H522 > 100 µM | SW-620 > 100 µM | NCI-H226 > 100 µM | HCT-116 > 100 µM

c1ccc(CSP234N5CCN2CCN3CCN4CC5)c(CSP234N5CCN2CCN3CCN4CC5)c1
> 100 µM: HCT-15
inactive: OVCAR-8 > 100 µM | T47D > 100 µM | CCRF-CEM 45.4 µM | MCF7 > 100 µM | SF-268 > 100 µM | RPMI-8226 27.7 µM | ACHN > 100 µM | COLO 205 13.6 µM | U-251 > 100 µM | NCI-H460 > 100 µM | OVCAR-5 > 100 µM | PC-3 > 100 µM | MDA-MB-231 > 100 µM | LOX IMVI > 100 µM | SF-295 > 100 µM | SN12C 14.4 µM | Hs-578T 80.2 µM | 786-0 > 100 µM | DU-145 > 100 µM | KM12 > 100 µM | NCI-H23 > 100 µM | TK-10 > 100 µM | EKVX > 100 µM | A549 > 100 µM | SK-MEL-5 55 µM | SNB-75 28.3 µM | IGROV-1 > 100 µM | CAKI-1 > 100 µM | UO-31 81.1 µM | UACC-62 > 100 µM | HT-29 37.2 µM | SNB-19 > 100 µM | UACC-257 > 100 µM | SK-MEL-28 > 100 µM | MDA-MB-435 > 100 µM | M14 31.5 µM | BT-549 > 100 µM | SK-MEL-2 > 100 µM | HOP-92 46.2 µM | HL-60 3.65 µM | HCC 2998 > 100 µM | OVCAR-4 > 100 µM | NCI/ADR-RES > 100 µM | HOP-62 > 100 µM | MOLT-4 65.2 µM | MDA-N 13.4 µM | OVCAR-3 > 100 µM | SF-539 41.7 µM | NCI-H522 46.6 µM | SW-620 > 100 µM | SR 30.8 µM | HCT-116 > 100 µM

CC(NC(=O)Cc1ccccc1)NC(=O)C(C)C(=O)NCc1ccccc1 (stereo not drawn)
inactive: OVCAR-8 32.4 µM | T47D > 100 µM | CCRF-CEM > 100 µM | MCF7 > 100 µM | SF-268 33.3 µM | RPMI-8226 > 100 µM | ACHN 52.2 µM | COLO 205 > 100 µM | U-251 50.6 µM | NCI-H460 > 100 µM | OVCAR-5 > 100 µM | PC-3 > 100 µM | K562 > 100 µM | MDA-MB-231 46.8 µM | SF-295 21.7 µM | SN12C 53.5 µM | Hs-578T 30.3 µM | 786-0 > 100 µM | DU-145 > 100 µM | KM12 > 100 µM | NCI-H23 > 100 µM | TK-10 45.4 µM | EKVX > 100 µM | A549 > 100 µM | RXF 393 42.6 µM | SK-MEL-5 > 100 µM | SNB-75 38.8 µM | IGROV-1 50.9 µM | CAKI-1 81.7 µM | UO-31 42.6 µM | UACC-62 > 100 µM | HT-29 > 100 µM | SNB-19 23.7 µM | UACC-257 > 100 µM | MDA-MB-435 > 100 µM | M14 > 100 µM | BT-549 27.9 µM | SK-MEL-2 75.3 µM | HOP-92 31.4 µM | SK-OV-3 53.6 µM | HL-60 > 100 µM | OVCAR-4 > 100 µM | Malme-3M > 100 µM | NCI/ADR-RES > 100 µM | MOLT-4 > 100 µM | MDA-N > 100 µM | SF-539 82.4 µM | NCI-H522 > 100 µM | SW-620 > 100 µM | SR > 100 µM | NCI-H226 21.7 µM | HCT-116 > 100 µM
> 100 µM: HCT-15

Source: ChEMBL document CHEMBL1201862, “PubChem BioAssay data set” (2004)
